Measured values published in patent publication US20220175777A1, “Inhibitors of Multidrug Resistance Transporter P-Glycoprotein” (Southern Methodist University, priority 2014, published 2022).

What was measured:
HFL1 = assay: Intrinsic toxicity, MTT survival; assay type: cell-based; details: Homo sapiens, 48 hours, ± standard error
Protocol: (§1) Percent survival determined by MTT assay calculated relative to cells treated with equal volume DMSO vehicle and represent the mean±SEM from 2-4 separate studies, each study performed in triplicate wells.
The intrinsic in vitro toxicities of identified compounds were evaluated to determine their potential therapeutic window. This was assessed in a noncancerous cell line (HFL1) and the human prostate cancer cell lines DU145 and the MDR sub-line DU145TxR. The potential toxicity of the compounds were assessed at concentrations that centered around 25 μM.

DU145TXR [1] = assay: Potentiation of 500 nM paclitaxel cytotoxicity (MTT); assay type: cell-based, human; details: for Effect on paclitaxel sensitivity: 50 nM-25 μM inhibitor with 500 nM paclitaxel
Protocol: FIGS. 4A and 4B show the in silico identified P-gp inhibitors potentiate the cytotoxic effects of paclitaxel in the MDR human prostate cancer cell line DU145TxR. […] Values represent the mean±SEM of at least two separate experiments performed in triplicate.
A range of experimental inhibitor concentrations was added in the presence of 500 nM paclitaxel and the cell viability was assessed using the MTT assay.
In order to compare the efficacy of inhibitors, the potentiation concentration of inhibitor resulting in 50% reduction in cell viability, PC50, in the presence of 500 nM paclitaxel was calculated from the data in FIG. 4A.

DU145TXR [2] = assay: Dose dependent sensitization of MDR cell line to paclitaxel (MTT); assay type: cell-based, human
Protocol: FIGS. 6A to 6C show the dose dependent sensitization of MDR prostate cancer cell line DU145TxR. […] For reference, the DU145TxR (closed circle) and DU145 (open circle) incubated with paclitaxel only are also included. Values are mean±SEM from at least 2 separate experiments performed in triplicate wells. The data were normalized to the intrinsic toxicities as determined in studies from FIGS. 5A to 5C of each of the compounds for each of the corresponding concentrations.
Dose Dependent Sensitization of MDR Prostate Cancer Cell Line: To determine the degree to which the MDR prostate cancer cell line DU145TxR could be sensitized to paclitaxel the inventors determined cell survival at increasing concentrations of paclitaxel in the presence of three concentrations of P-gp inhibitors. FIGS. 6A, 6B and 6C show the survival of DU145TxR at increasing concentration of paclitaxel in the presence of 5 μM, 10 μM and 25 μM of the experimental compounds, respectively. The open circles represent the parental DU145 cell line in the presence of paclitaxel without addition of any inhibitor compound. The closed circles represent the survival of the multidrug resistant DU145TxR in the presence of paclitaxel alone. […] At that concentration over 10-fold increase in paclitaxel sensitivity in DU145TxR is observed compared to DU145TxR without P-gp inhibitors. Doubling the concentration of the compounds to 10 μM approximately doubled the DU145TxR sensitivity to paclitaxel.

DU145TXR [3] = assay: Intrinsic toxicity, MTT survival; assay type: cell-based, human; details: Homo sapiens; intrinsic toxicity, 48 hours, MTT; ± standard error
Protocol: as §1
(§2) The intrinsic in vitro toxicities of identified compounds were evaluated to determine their potential therapeutic window. This was assessed in a noncancerous cell line (HFL1) and the human prostate cancer cell lines DU145 and the MDR sub-line DU145TxR.

[4] = biological target: T1, Cysteineless Mouse MDR3 P-glycoprotein (Mus musculus, UniProt P21447, C1070A/C1121A/C1223A/C133A/C427A/C638A/C669A/C713A/C952A); details: ESR data of Brewer et al. (2014); cited from earlier work
T1 construct: made in house; host or cells: Pichia pastoris
T1 sequence (P21447 whole entry C133A/C427A/C638A/C669A/C713A/C952A/C1070A/C1121A/C1223A): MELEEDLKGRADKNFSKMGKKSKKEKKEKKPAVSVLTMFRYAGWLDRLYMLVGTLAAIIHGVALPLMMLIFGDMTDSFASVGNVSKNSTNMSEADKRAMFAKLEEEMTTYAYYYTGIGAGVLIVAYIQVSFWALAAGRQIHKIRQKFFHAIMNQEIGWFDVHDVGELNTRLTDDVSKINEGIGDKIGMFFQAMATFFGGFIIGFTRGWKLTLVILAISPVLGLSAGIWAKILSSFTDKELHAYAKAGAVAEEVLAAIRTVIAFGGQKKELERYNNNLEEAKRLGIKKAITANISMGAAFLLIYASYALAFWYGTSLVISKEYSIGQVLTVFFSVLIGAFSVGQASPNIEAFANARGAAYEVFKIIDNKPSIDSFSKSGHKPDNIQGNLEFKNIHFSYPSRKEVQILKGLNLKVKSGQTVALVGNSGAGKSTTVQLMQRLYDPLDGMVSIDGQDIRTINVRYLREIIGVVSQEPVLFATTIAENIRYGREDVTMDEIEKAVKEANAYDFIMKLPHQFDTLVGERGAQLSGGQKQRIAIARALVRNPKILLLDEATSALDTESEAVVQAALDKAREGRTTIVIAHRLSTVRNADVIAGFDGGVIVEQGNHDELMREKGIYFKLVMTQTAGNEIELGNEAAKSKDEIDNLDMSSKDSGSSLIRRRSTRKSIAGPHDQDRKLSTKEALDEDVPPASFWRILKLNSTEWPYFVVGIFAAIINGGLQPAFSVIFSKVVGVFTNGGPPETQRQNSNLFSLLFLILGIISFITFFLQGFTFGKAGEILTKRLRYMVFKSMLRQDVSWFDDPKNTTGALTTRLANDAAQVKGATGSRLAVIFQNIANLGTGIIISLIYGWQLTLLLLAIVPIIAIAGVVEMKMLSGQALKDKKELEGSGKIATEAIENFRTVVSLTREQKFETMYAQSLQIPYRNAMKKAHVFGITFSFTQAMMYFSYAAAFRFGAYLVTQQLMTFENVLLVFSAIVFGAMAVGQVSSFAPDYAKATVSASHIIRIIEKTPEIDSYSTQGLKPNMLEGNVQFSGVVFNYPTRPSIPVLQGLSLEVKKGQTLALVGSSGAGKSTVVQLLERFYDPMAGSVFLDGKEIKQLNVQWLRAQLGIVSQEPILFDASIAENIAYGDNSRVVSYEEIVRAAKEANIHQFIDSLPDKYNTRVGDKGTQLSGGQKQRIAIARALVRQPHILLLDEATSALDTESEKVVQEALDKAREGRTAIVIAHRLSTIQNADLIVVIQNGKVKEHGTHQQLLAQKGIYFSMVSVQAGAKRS

A2780 = assay: Hyper-sensitization of ovarian cancer cells to doxorubicin; assay type: cell-based; details: not chemotherapy resistant A2780
Excerpt: Hyper-sensitization of cancers to chemotherapeutics. […] The sensitivity of normal, not chemotherapy resistant A2780 ovarian cancer cell lines to doxorubicin was increased by several orders of magnitude in these assays.

DU145-TxR = assay: Re-sensitization to Paclitaxel or Doxorubicin at 25 μM compound (MTT); assay type: cell-based, human; details: 48 hours
Protocol: FIGS. 3A-3B are plots that show an example of the re-sensitization of a multidrug resistant prostate cancer cell line to two different chemotherapeutics using the prostate cancer derived cell line, DU145 and the multidrug-resistant variant, DU145-TxR. […] Cell viability was measured by the MTT (3-(4,5-dimethylthiazol-2-yl)-2,5-diphenyl tetrazolium bromide assay conducted as described previously. After 48 hours of treatment with Paclitaxel or Doxorubicin alone or in the presence of 25 μM compound 29, 34, or 45 media was removed and cells were washed twice with phosphate buffered saline (PBS) and MTT assay was conducted 24 hours later. Data expressed as mean±SEM.

[5] = biological target: T1, Cysteineless Mouse MDR3 P-glycoprotein; assay: SL-ATP binding to P-gp by ESR spectroscopy; details: 50 microM inhibitor compound
Excerpt: Determination of the possible mode of ATP hydrolysis inhibition by the identified P-glycoprotein inhibitors. The mode of hydrolysis of ATP by P-glycoprotein was investigated by measuring the maximal binding stoichiometry and binding affinity of an analog of ATP, SL-ATP, and by Electron Spin Resonance (ESR) spectroscopy, similar to in both the presence and absence of the identified inhibitors.
The high-field signal of the freely mobile, unbound SL-ATP is compared and is used to calculate the amount of ATP-analog bound to P-glycoprotein. Binding of SL-ATP in the absence of any P-glycoprotein inhibitor saturated at about 2 mol of SL-nucleotide bounds per mol of P-glycoprotein.
FIGS. 2A-2D are plots showing the effects of P-glycoprotein ATP hydrolysis inhibitors on nucleotide binding. Between 30 and 50 microM Pgp were incubated with 50 microM inhibitor compound. Increasing amounts of SL-ATP were added. The ESR signal of the free SL-ATP in the presence of P-glycoprotein and inhibitor was compared to that in the absence of P-glycoprotein. The graphs represent at least 3 individual studies each using 3 to 5 different P-glycoprotein preparations.

DU145 = assay: Intrinsic toxicity, MTT survival; assay type: cell-based; details: Homo sapiens, DU-145, 48 hours, ± standard error
Protocol: as §1, §2

[6] = biological target: T1, Cysteineless Mouse MDR3 P-glycoprotein; assay: ATP hydrolysis by purified P-glycoprotein, basal and verapamil-stimulated; assay type: biochemical; details: in the presence of verapamil
Excerpt: The efficacy of molecules identified using in silico methods to function as potential inhibitors of P-glycoprotein was initially tested with regard to their capability to inhibit ATP hydrolysis by purified P-glycoprotein. For this purpose, a well-established activity assay for ATP hydrolyzing enzymes that uses the oxidation of NADH to NAD+ through coupling the reactions of pyruvate kinase and lactate dehydrogenase to the hydrolysis of ATP was adapted to medium throughput conditions on 96 well plates. […] In this set-up, the effects of potential small molecule inhibitors on the ATP hydrolysis activity of P-glycoprotein were tested in duplicate or triplicate and were repeated at least two times using different enzyme preparations.
The P-glycoprotein used in these assays was a close relative of the human P-glycoprotein that is found in mice. A mutant version of the mouse P-glycoprotein where all intrinsic cysteine amino acids had been replaced by alanine residues was recombinantly expressed in the yeast Pichia pastoris and used for these initial tests. […] Prior to testing the ATP-hydrolysis activity, P-glycoprotein was incubated with phosphatidyl choline for stabilization of the enzyme during the assay.
Different concentrations of the to-be-tested small molecules were added and pre-incubated at 37° C. The ATP hydrolysis reaction was then started by adding equal volume of double concentrated ATPase cocktail. The final ATP concentration in the reaction was 2 mM. The reaction was allowed to proceed for 20 minutes, the rate of ATP hydrolysis was calculated using the molar extinction coefficient of NADH, and the one-to-one relationship of ATP hydrolyzed and NADH oxidized.
Evaluation of mode of inhibition of P-glycoprotein by Group 1 and Group 2 variants of compound 29. To assess the mode of inhibition of P-gp by the novel variants of P-gp inhibitor 29, ATP hydrolysis by P-gp was evaluated in the presence or absence of the variants. […] Murine P-gp (MDR3) expressed in Pichia pastoris that had all naturally occurring cysteines replaced with alanine, was used^45, 46. It is widely assumed that the ATP hydrolytic rate of P-gp is stimulated in the presence of transport substrates when compared to ATP hydrolysis in the absence of transport substrates. Assays comparing these rates can therefore be useful not only in identifying inhibitors of P-gp catalyzed ATP hydrolysis, but also to potentially infer whether a compound might be a transport substrate if basal ATPase rates are stimulated by the addition of a compound.

Structure (SMILES) | IC50 (HFL1) [µM] | Effect on paclitaxel sensitivity (DU145TXR [1]) | EC50 (DU145TXR [1]; in the presence of 500 nM paclitaxel, 48 hours, read-out: PC50, potentiation concentration of inhibitor resulting in 50% reduction in cell viability) [µM] | Sensitization to paclitaxel (DU145TXR [2]; 25 μM compound) [fold] | IC50 (DU145TXR [3]) [µM] | Effect on SL-ANP binding [4] | Sensitivity to doxorubicin (A2780) | Chemotherapeutic sensitivity of MDR cell line (Paclitaxel or Doxorubicin) (DU145-TxR) | Effect on SL-ATP binding [5] | IC50 (DU145) [µM] | Effect on stimulated ATPase [6] | Effect on cell viability with paclitaxel (DU145TXR [2]; 5 μM and 10 μM compound)
CCC(C(=O)N1CCN(c2ccc(OC)cc2)CC1)n1nc(C)c2sc3ccccc3c2c1=O (stereo not shown) [SMU-34, 2-[1-[4-(4-methoxyphenyl)piperazin-1-yl]-1-oxobutan-2-yl]-4-methyl-[1]benzothiolo[2,3-d]pyridazin-1-one] | 85.2 ± 0.04 | strongly affected the sensitivity | 0.57 ± 0.003 | 1200 | 200.3 ± 0.17 | reduce the number of binding sites | hyper-sensitized | restores chemotherapeutic sensitivity | decreased the SL-ATP binding affinities | 47.2 ± 0.02 | significantly inhibit | 
COc1ccc(CCN(C)CCCC(C#N)(c2ccc(OC)c(OC)c2)C(C)C)cc1OC (stereo not shown) [Verapamil, verapamil, reference compound] |  |  |  |  | 147.5 ± 0.1 |  |  |  |  | 74.5 ± 0.04 |  | 
COC(=O)c1ccc(C(c2c(O)oc3ccccc3c2=O)c2c(O)oc3ccccc3c2=O)cc1 [SMU-19, methyl 4-[bis(2-hydroxy-4-oxochromen-3-yl)methyl]benzoate] |  | no effect |  |  |  | reduce the number of binding sites |  |  |  |  |  | no effect on cell viability
